Results on one compound are retold here after US11491145B2, “Combination therapies comprising targeted therapeutics” (priority 2017, dated 2022).

This data set is described as follows: Average weight changes in H460 model. The class given is in vivo. The following applies: SCID mice, tracked 21 days, weight loss also in vehicle group, FIG. 1B. The protocol: In this study, each study group included 8 SCID mice with H460 xenograft. Each group received vehicle (once per week), talazoparib (0.3 mg/kg, one does per day for 4-5 days per week), SDC-TRAP-0063 (100 mg/kg, once per week), or a combination therapy of SDC-TRAP-0063 (100 mg/kg, once per week) and talazoparib (0.3 mg/kg, 5 days per week).
Average weight changes were also tracked for 21 days and the results for the groups treated with talazoparib, SDC-TRAP-0063, and a combination of SDC-TRAP-0063 and talazoparib were shown in FIG. 1B.

SMILES strings stand for the structures.

For `Cn1ncnc1[C@H]1c2n[nH]c(=O)c3cc(F)cc(c23)N[C@@H]1c1ccc(F)cc1` [talazoparib, Talazoparib], the “average weight changes (weight loss)” value is listed as “Weight loss was observed”.
